Calls of active or inactive are those of the source. How the calls were made is not given here.
System: CCRIS mutagenicity, Ames/micronucleus/aberration tests
Test: CCRIS mutagenicity studies
[1] = Test System: AMES SALMONELLA TYPHIMURIUM, Strain/Indicator: TA98, Metabolic Activation: NONE, Method: STANDARD PLATE
[2] = Test System: AMES SALMONELLA TYPHIMURIUM, Strain/Indicator: TA98, Metabolic Activation: RAT, LIVER, S-9, AROCLOR 1254, Method: STANDARD PLATE
[3] = Test System: AMES SALMONELLA TYPHIMURIUM, Strain/Indicator: TA100, Metabolic Activation: NONE, Method: STANDARD PLATE
[4] = Test System: AMES SALMONELLA TYPHIMURIUM, Strain/Indicator: TA100, Metabolic Activation: RAT, LIVER, S-9, AROCLOR 1254, Method: STANDARD PLATE

For COc1ccc(C=O)cc1, the mutagenic call (Test System: AMES SALMONELLA TYPHIMURIUM, Strain/Indicator: TA97, Metabolic Activation: NONE, Method: PREINCUBATION) was “inactive; negative”, the mutagenic call (Test System: AMES SALMONELLA TYPHIMURIUM, Strain/Indicator: TA97, Metabolic Activation: RAT, LIVER, S-9, AROCLOR 1254, Method: PREINCUBATION) was “inactive; negative” and the mutagenic call (Test System: AMES SALMONELLA TYPHIMURIUM, Strain/Indicator: TA98, Metabolic Activation: NONE, Method: PREINCUBATION) was “inactive; negative”. The mutagenic call (Test System: AMES SALMONELLA TYPHIMURIUM, Strain/Indicator: TA98, Metabolic Activation: RAT LIVER S-9, PHENOBARBITAL AND BETA-NAPHTHOFLAVONE, Method: PREINCUBATION) was “inactive; negative”, the mutagenic call (Test System: AMES SALMONELLA TYPHIMURIUM, Strain/Indicator: TA100, Metabolic Activation: NONE, Method: PREINCUBATION) was “inactive; negative” and the mutagenic call (Test System: AMES SALMONELLA TYPHIMURIUM, Strain/Indicator: TA100, Metabolic Activation: RAT LIVER S-9, PHENOBARBITAL AND BETA-NAPHTHOFLAVONE, Method: PREINCUBATION) was “inactive; negative”. For the same compound, the mutagenic call (Test System: AMES SALMONELLA TYPHIMURIUM, Strain/Indicator: TA102, Metabolic Activation: NONE, Method: PREINCUBATION) was “inactive; negative”, the mutagenic call (Test System: AMES SALMONELLA TYPHIMURIUM, Strain/Indicator: TA102, Metabolic Activation: RAT, LIVER, S-9, AROCLOR 1254, Method: PREINCUBATION) was “inactive; negative” and the mutagenic call (Test System: AMES SALMONELLA TYPHIMURIUM, Strain/Indicator: TA1535, Metabolic Activation: NONE, Method: PREINCUBATION) was “inactive; negative”. The mutagenic call (Test System: AMES SALMONELLA TYPHIMURIUM, Strain/Indicator: TA1535, Metabolic Activation: RAT LIVER S-9, PHENOBARBITAL AND BETA-NAPHTHOFLAVONE, Method: PREINCUBATION) was “inactive; negative”, the mutagenic call (Test System: AMES SALMONELLA TYPHIMURIUM, Strain/Indicator: TA1537, Metabolic Activation: NONE, Method: PREINCUBATION) was “inactive; negative” and the mutagenic call (Test System: AMES SALMONELLA TYPHIMURIUM, Strain/Indicator: TA1537, Metabolic Activation: RAT LIVER S-9, PHENOBARBITAL AND BETA-NAPHTHOFLAVONE, Method: PREINCUBATION) was “inactive; negative”. The mutagenic call (Test System: AMES SALMONELLA TYPHIMURIUM, Strain/Indicator: TA1538, Metabolic Activation: NONE, Method: PREINCUBATION) was “inactive; negative”, the mutagenic call (Test System: AMES SALMONELLA TYPHIMURIUM, Strain/Indicator: TA1538, Metabolic Activation: RAT LIVER S-9, PHENOBARBITAL AND BETA-NAPHTHOFLAVONE, Method: PREINCUBATION) was “inactive; negative” and the mutagenic call (Test System: E. COLI, Strain/Indicator: WP2UVRA, Metabolic Activation: NONE, Method: PREINCUBATION) was “inactive; negative”. The mutagenic call (Test System: E. COLI, Strain/Indicator: WP2UVRA, Metabolic Activation: RAT LIVER S-9, PHENOBARBITAL AND BETA-NAPHTHOFLAVONE, Method: PREINCUBATION) was “inactive; negative”, the mutagenic call (Test System: MOUSE LYMPHOMA, Strain/Indicator: L5178Y (TK+/TK-), Metabolic Activation: NONE, Method: SUSPENSION/PLATE) was “active; positive” and the mutagenic call (Test System: MOUSE LYMPHOMA, Strain/Indicator: L5178Y (TK+/TK-), Metabolic Activation: RAT, LIVER, S-9, AROCLOR 1254, Method: SUSPENSION/PLATE) was “active; positive. reevaluation of results: positive”. The mutagenic call (Test System: Mouse lymphoma, Strain/Indicator: L5178Y (tk+/tk-), Metabolic Activation: None, Method: Suspension/plate) was “inactive; negative”.

c1ccc(-c2ccccn2)nc1 was tested, and the mutagenic call (Test System: AMES SALMONELLA TYPHIMURIUM, Strain/Indicator: TA97, Metabolic Activation: RAT, LIVER, S-9, PHENOBARBITAL, Method: STANDARD PLATE) was “active; positive”, the mutagenic call (Test System: AMES SALMONELLA TYPHIMURIUM, Strain/Indicator: TA98, Metabolic Activation: RAT, LIVER, S-9, PHENOBARBITAL, Method: STANDARD PLATE) was “active; positive” and the mutagenic call (Test System: AMES SALMONELLA TYPHIMURIUM, Strain/Indicator: TA100, Metabolic Activation: RAT, LIVER, S-9, PHENOBARBITAL, Method: STANDARD PLATE) was “active; positive”. For the same compound, the mutagenic call (Test System: AMES SALMONELLA TYPHIMURIUM, Strain/Indicator: TA1535, Metabolic Activation: RAT, LIVER, S-9, PHENOBARBITAL, Method: STANDARD PLATE) was “inactive; negative”, the mutagenic call (Test System: AMES SALMONELLA TYPHIMURIUM, Strain/Indicator: TA1537, Metabolic Activation: RAT, LIVER, S-9, PHENOBARBITAL, Method: STANDARD PLATE) was “inactive; negative” and the mutagenic call (Test System: AMES SALMONELLA TYPHIMURIUM, Strain/Indicator: TA1538, Metabolic Activation: RAT, LIVER, S-9, PHENOBARBITAL, Method: STANDARD PLATE) was “inactive; negative”.

In the case of ClCCBr, the mutagenic call (End Point: IN VITRO CHROMOSOMAL ABERRATIONS, Test System: CHL CELLS, Metabolic Activation: RAT, LIVER, S-9, SODIUM PHENOBARBITAL AND 5,6-BENZOFLAVONE) is reported as “active; positive (structural changes)”, the mutagenic call (Test System: AMES SALMONELLA TYPHIMURIUM, Strain/Indicator: TA1530, Metabolic Activation: NONE, Method: SPOT) is reported as “active; positive” and the mutagenic call (Test System: AMES SALMONELLA TYPHIMURIUM, Strain/Indicator: TA1535, Metabolic Activation: NONE, Method: SPOT) is reported as “active; positive”.

In the case of Cc1cc(C(=O)NNCc2ccccc2)no1, the mutagenic call [1] is reported as “inactive; negative”, the mutagenic call [2] is reported as “inactive; negative” and the mutagenic call [3] is reported as “inactive; negative”. For the same compound, the mutagenic call [4] was “inactive; negative”, the mutagenic call (Test System: AMES SALMONELLA TYPHIMURIUM, Strain/Indicator: TA1535, Metabolic Activation: NONE, Method: STANDARD PLATE) was “inactive; negative” and the mutagenic call (Test System: AMES SALMONELLA TYPHIMURIUM, Strain/Indicator: TA1535, Metabolic Activation: RAT, LIVER, S-9, AROCLOR 1254, Method: STANDARD PLATE) was “inactive; negative”. For the same compound, the mutagenic call (Test System: AMES SALMONELLA TYPHIMURIUM, Strain/Indicator: TA1537, Metabolic Activation: NONE, Method: STANDARD PLATE) was “inactive; negative” and the mutagenic call (Test System: AMES SALMONELLA TYPHIMURIUM, Strain/Indicator: TA1537, Metabolic Activation: RAT, LIVER, S-9, AROCLOR 1254, Method: STANDARD PLATE) was “inactive; negative”.

In the case of Cc1ccc(C(=O)ON(OCc2ccccc2)C(=O)c2ccccc2)cc1, the mutagenic call [3] is reported as “active; positive” and the mutagenic call (Test System: AMES SALMONELLA TYPHIMURIUM, Strain/Indicator: TA100, Metabolic Activation: RAT, S-9, AROCLOR, Method: STANDARD PLATE) is reported as “active; positive”.

CC(=O)Nc1ccc(C(=O)[C@H]2O[C@H]2c2ccccc2)cc1 was tested, and the mutagenic call [1] was “inactive; negative”, the mutagenic call [2] was “inactive; negative” and the mutagenic call [3] was “active; positive”. For the same compound, the mutagenic call [4] was “active; positive”.

For O=[N+]([O-])c1cccc2c1-c1ccccc1C2, the mutagenic call (End Point: IN VITRO CHROMOSOMAL ABERRATIONS, Test System: CHINESE HAMSTER LUNG (CHL) CELLS, Metabolic Activation: NONE) was “active; positive” and the mutagenic call (End Point: IN VITRO CHROMOSOMAL ABERRATIONS, Test System: CHINESE HAMSTER LUNG (CHL) CELLS, Metabolic Activation: RAT, LIVER, S-9, KC-400) was “active; positive”.

Source: PubChem BioAssay AID1259407 (Chemical Carcinogenesis Research Information System (CCRIS), 2018)
